According to EP4273147A1, “SUBSTITUTED SPIROLACTAMS, SALTS THEREOF AND THEIR USE AS HERBICIDALLY ACTIVE SUBSTANCES” (Bayer Aktiengesellschaft, priority 2022, dated 2023):

Columns and labels:
[1] = tested on: ABUTH; assay: Herbicidal pre-emergence action (Table A1); format: in vivo, Abutilon theophrasti; conditions: application rate 1280 g/ha; visual grading after ca. 3 weeks vs untreated controls (100% = plants have died off, 0% = as control plants)
Method in brief: (§1)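 Seeds covered with soil after sowing in sandy loam; every pot carried one monocotyledonous and one dicotyledonous weed species as a double sowing.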

[2] = tested on: ECHCG; assay: Herbicidal pre-emergence action (Table A2); format: in vivo, Echinochloa crus-galli; conditions: application rate 320 g/ha; visual grading after ca. 3 weeks
Method in brief: as §1

[3] = tested on: LOLRI; assay: Herbicidal pre-emergence action (Table A3); format: in vivo, Lolium rigidum; conditions: application rate 320 g/ha, visual grading after ca. 3 weeks
Method in brief: as §1

[4] = tested on: MATIN; assay: Herbicidal pre-emergence action (Table A4); format: in vivo, Matricaria inodora; conditions: visual grading after ca. 3 weeks
Method in brief: as §1

[5] = tested on: SETVI; assay: Herbicidal pre-emergence action (Table A5); format: in vivo, Setaria viridis; conditions: application rate 1280 g/ha; visual grading after ca. 3 weeks
Method in brief: as §1

[6] = tested on: POAAN; assay: Herbicidal pre-emergence action (Table A7); format: in vivo, Poa annua; conditions: visual grading after ca. 3 weeks
Method in brief: as §1

[7] = tested on: ALOMY; assay: Herbicidal pre-emergence action (Table A9); format: in vivo, Alopecurus myosuroides; conditions: application rate 1280 g/ha; visual grading after ca. 3 weeks
Method in brief: as §1

[8] = tested on: KCHSC; assay: Herbicidal pre-emergence action (Table A10); format: in vivo, Kochia scoparia; conditions: visual grading after ca. 3 weeks
Method in brief: as §1

[9] = tested on: VERPE; assay: Herbicidal pre-emergence action (Table A11); format: in vivo, Veronica persica; conditions: application rate 1280 g/ha; visual grading after ca. 3 weeks
Method in brief: as §1

[10] = tested on: ALOMY; assay: Herbicidal post-emergence action (Table B2); format: in vivo, Alopecurus myosuroides; conditions: application rate 1280 g/ha; rated visually after about 3 weeks
Method in brief: (§2)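 Treated at one-leaf stage (2–3 weeks after sowing in sandy loam, greenhouse-grown). Visual efficacy rating after about 3 weeks; 0% = like controls, 100% = complete kill.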

[11] = tested on: ECHCG; assay: Herbicidal post-emergence action (Table B3); format: in vivo, Echinochloa crus-galli; conditions: application rate 1280 g/ha, rated visually after about 3 weeks
Method in brief: as §2

[12] = tested on: POAAN; assay: Herbicidal post-emergence action (Table B7); format: in vivo, Poa annua; conditions: application rate 1280 g/ha
Method in brief: as §2

[13] = tested on: SETVI; assay: Herbicidal post-emergence action (Table B8); format: in vivo, Setaria viridis; conditions: application rate 1280 g/ha
Method in brief: as §2

[14] = tested on: VERPE; assay: Herbicidal post-emergence action (Table B10); format: in vivo, Veronica persica; conditions: application rate 1280 g/ha
Method in brief: as §2

[15] = tested on: ABUTH; assay: Herbicidal pre-emergence action, section C (Table C1); format: in vivo, Abutilon theophrasti; conditions: application rate 320 g/ha; visual grading after ca. 3 weeks
From the text: (§4) Seeds of mono- and dicotyledonous weed plants and crop plants were sown, in plastic or organic planting pots, in sandy loam and covered with soil. The compounds according to the invention, formulated in the form of wettable powders (WP) or as emulsifiable concentrates (EC), were applied to the surface of the covering soil as aqueous suspension or emulsion, with the addition of 0.5% of an additive, at an application rate of 600 1 of water/ha (converted). Following treatment, the pots were placed in a greenhouse and kept under optimum growth conditions for the test plants.

[16] = tested on: ALOMY; assay: Herbicidal pre-emergence action, section C (Table C2); format: in vivo, Alopecurus myosuroides; conditions: application rate 320 g/ha; visual grading after ca. 3 weeks
[17] = tested on: ECHCG; assay: Herbicidal pre-emergence action, section C (Table C6); format: in vivo, Echinochloa crus-galli; conditions: application rate 80 g/ha; visual grading after ca. 3 weeks
[18] = tested on: LOLRI; assay: Herbicidal pre-emergence action, section C (Table C7); format: in vivo, Lolium rigidum; conditions: application rate 320 g/ha; visual grading after ca. 3 weeks
From the text: as §4

[19] = tested on: MATIN; assay: Herbicidal pre-emergence action, section C (Table C8); format: in vivo, Matricaria inodora; conditions: application rate 320 g/ha; visual grading after ca. 3 weeks
[20] = tested on: POLCO; assay: Herbicidal pre-emergence action, section C (Table C9); format: in vivo, Polygonum convolvulus; conditions: application rate 320 g/ha; visual grading after ca. 3 weeks
[21] = tested on: SETVI; assay: Herbicidal pre-emergence action, section C (Table C10); format: in vivo, Setaria viridis; conditions: visual grading after ca. 3 weeks
[22] = tested on: VERPE; assay: Herbicidal pre-emergence action, section C (Table C11); format: in vivo, Veronica persica; conditions: visual grading after ca. 3 weeks
[23] = tested on: VIOTR; assay: Herbicidal pre-emergence action, section C (Table C12); format: in vivo, Viola tricolor; conditions: application rate 80 g/ha; visual grading after ca. 3 weeks
[24] = tested on: ABUTH; assay: Herbicidal post-emergence action, section E (Table E1); format: in vivo, Abutilon theophrasti; conditions: application rate 320 g/ha; assessed visually after ca. 3 weeks
From the text: (§3) 2 to 3 weeks after sowing, the test plants were sprayed in the single-leaf stage.

[25] = tested on: ALOMY; assay: Herbicidal post-emergence action, section E (Table E2); format: in vivo, Alopecurus myosuroides; conditions: application rate 80 g/ha; assessed visually after ca. 3 weeks
From the text: as §3

[26] = tested on: ECHCG; assay: Herbicidal post-emergence action, section E (Table E5); format: in vivo, Echinochloa crus-galli; conditions: application rate 320 g/ha; assessed visually after ca. 3 weeks
From the text: as §3

[27] = tested on: SETVI; assay: Herbicidal post-emergence action, section E (Table E8); format: in vivo, Setaria viridis; conditions: application rate 320 g/ha; assessed visually after ca. 3 weeks
From the text: as §3

[28] = tested on: TRZAS; assay: Post-emergence effects on crop plants (Table F2); format: in vivo, Triticum aestivum; conditions: application rate 320 g/ha, crop plant TRZAS
From the text: as §3

[29] = tested on: ORYZA; assay: Post-emergence effects on crop plants (Table F3); format: in vivo, Oryza sativa; conditions: crop plant ORYZA
From the text: as §3

[30] = tested on: BRSNW; assay: Post-emergence effects on crop plants (Table F5); format: in vivo, Brassica napus; conditions: application rate 320 g/ha, crop plant BRSNW
From the text: as §3

[31] = tested on: STEME; assay: Herbicidal pre-emergence action (Table A6); format: in vivo, Stellaria media; conditions: application rate 320 g/ha; visual grading after ca. 3 weeks
Method in brief: as §1

[32] = tested on: DIGSA; assay: Herbicidal pre-emergence action (Table A12); format: in vivo, Digitaria sanguinalis; conditions: application rate 320 g/ha; visual grading after ca. 3 weeks
Method in brief: as §1

[33] = tested on: ABUTH; assay: Herbicidal post-emergence action (Table B1); format: in vivo, Abutilon theophrasti; conditions: application rate 1280 g/ha; treated at one-leaf stage; rated visually after about 3 weeks vs untreated controls (100% = plants have died, 0% = like control plants)
Method in brief: as §2

[34] = tested on: LOLRI; assay: Herbicidal post-emergence action (Table B5); format: in vivo, Lolium rigidum; conditions: application rate 1280 g/ha; rated visually after about 3 weeks
Method in brief: as §2

[35] = tested on: MATIN; assay: Herbicidal post-emergence action (Table B6); format: in vivo, Matricaria inodora; conditions: application rate 1280 g/ha; rated visually after about 3 weeks
Method in brief: as §2

[36] = tested on: DIGSA; assay: Herbicidal pre-emergence action, section C (Table C5); format: in vivo, Digitaria sanguinalis; conditions: application rate 80 g/ha; visual grading after ca. 3 weeks
[37] = tested on: ZEAMX; assay: Pre-emergence effects on crop plants (Table D1); format: in vivo, Zea mays; conditions: crop plant; application rate 80 g/ha; visual grading after ca. 3 weeks
[38] = tested on: TRZAS; assay: Pre-emergence effects on crop plants (Table D2); format: in vivo, Triticum aestivum; conditions: crop plant; application rate 80 g/ha; visual grading after ca. 3 weeks
[39] = tested on: GLXMA; assay: Pre-emergence effects on crop plants (Table D4); format: in vivo, Glycine max; conditions: crop plant; application rate 320 g/ha; visual grading after ca. 3 weeks
[40] = tested on: VERPE; assay: Herbicidal post-emergence action, section E (Table E9); format: in vivo, Veronica persica; conditions: application rate 320 g/ha; assessed visually after ca. 3 weeks
From the text: as §3

[41] = tested on: VIOTR; assay: Herbicidal post-emergence action, section E (Table E10); format: in vivo, Viola tricolor; conditions: application rate 320 g/ha; assessed visually after ca. 3 weeks
From the text: as §3

[42] = tested on: ZEAMX; assay: Post-emergence effects on crop plants (Table F1); format: in vivo, Zea mays; conditions: application rate 320 g/ha, crop plant ZEAMX
From the text: as §3

[43] = tested on: GLXMA; assay: Post-emergence effects on crop plants (Table F4); format: in vivo, Glycine max; conditions: application rate 320 g/ha, crop plant GLXMA
From the text: as §3

[44] = tested on: ORYZA; assay: Pre-emergence effects on crop plants (Table D3); conditions: crop plant; application rate 80 g/ha; visual grading after ca. 3 weeks

O=C1N(Cc2ccccc2)CCCC12CCCN(Cc1ccccc1F)C2=O (racemic) [I-010, 2-benzyl-8-(2-fluorobenzyl)-2,8-diazaspiro[5.5]undecane-1,7-dione]
pre-emergence activity against ABUTH [1]: 90%
pre-emergence activity against ECHCG [2]: 100%
pest or weed control at 320 g/ha ([3]; Lolium rigidum, pre-emergence, 504 h, read-out: pre-emergence activity against LOLRI): 100%
pre-emergence activity against MATIN ([4]; application rate 320 g/ha): 90%
pre-emergence activity against SETVI [5]: 90%
pest or weed control at 1280 g/ha ([6]; Poa annua, pre-emergence, 504 h, application rate 1280 g/ha, read-out: pre-emergence activity against POAAN): 100%
pre-emergence activity against ALOMY [7]: 90%
pre-emergence activity against KCHSC ([8]; application rate 1280 g/ha): 90%
pre-emergence activity against VERPE [9]: 90%
post-emergence activity against ALOMY [10]: 90%
pest or weed control at 1280 g/ha ([11]; Echinochloa crus-galli, post-emergence, 504 h, read-out: post-emergence activity against ECHCG): 90%
post-emergence activity against POAAN [12]: 90%
post-emergence activity against SETVI [13]: 90%
post-emergence activity against VERPE [14]: 90%
pre-emergence activity against ABUTH [15]: 90%
pre-emergence activity against ALOMY [16]: 100%
pre-emergence activity against ECHCG [17]: 100%
pre-emergence activity against LOLRI [18]: 100%
pre-emergence activity against MATIN [19]: 90%
pre-emergence activity against POLCO [20]: 80%
pre-emergence activity against SETVI ([21]; application rate 80 g/ha): 100%
pre-emergence activity against VERPE ([22]; application rate 320 g/ha): 80%
pre-emergence activity against VIOTR [23]: 80%
post-emergence activity against ABUTH [24]: 80%
post-emergence activity against ALOMY [25]: 80%
post-emergence activity against ECHCG [26]: 90%
post-emergence activity against SETVI [27]: 80%
post-emergence activity against TRZAS [28]: 0%
post-emergence activity against ORYZA ([29]; application rate 80 g/ha): 0%
post-emergence activity against BRSNW [30]: 0%

O=C1N(Cc2c(F)cccc2F)CCCC12CCN(Cc1c(F)cccc1F)C2=O (racemic) [I-037]
pre-emergence activity against ABUTH [1]: 100%
pre-emergence activity against ECHCG [2]: 100%
pre-emergence activity against LOLRI [3]: 100%
pre-emergence activity against MATIN ([4]; application rate 1280 g/ha): 90%
pre-emergence activity against SETVI [5]: 100%
pre-emergence activity against STEME [31]: 90%
pre-emergence activity against POAAN ([6]; application rate 320 g/ha): 100%
pre-emergence activity against ALOMY [7]: 90%
pre-emergence activity against KCHSC ([8]; application rate 320 g/ha): 90%
pre-emergence activity against VERPE [9]: 90%
pre-emergence activity against DIGSA [32]: 100%
post-emergence activity against ABUTH [33]: 90%
post-emergence activity against ECHCG [11]: 90%
post-emergence activity against LOLRI [34]: 90%
post-emergence activity against MATIN [35]: 90%
post-emergence activity against SETVI [13]: 90%
pre-emergence activity against ALOMY [16]: 100%
pre-emergence activity against DIGSA [36]: 100%
pre-emergence activity against LOLRI [18]: 100%
pre-emergence activity against MATIN [19]: 80%
pre-emergence activity against SETVI ([21]; application rate 320 g/ha): 100%
pre-emergence activity against VERPE ([22]; application rate 80 g/ha): 90%
pre-emergence activity against VIOTR [23]: 90%
pre-emergence activity against ZEAMX [37]: 0%
pre-emergence activity against TRZAS [38]: 0%
pre-emergence activity against GLXMA [39]: 20%
post-emergence activity against ABUTH [24]: 80%
post-emergence activity against VERPE [40]: 80%
post-emergence activity against VIOTR [41]: 80%
post-emergence activity against ZEAMX [42]: 0%
post-emergence activity against TRZAS [28]: 0%
post-emergence activity against ORYZA ([29]; application rate 320 g/ha): 0%
post-emergence activity against GLXMA [43]: 0%
pre-emergence activity against ORYZA [44]: 0%
